According to PMC3196344 (Nature medicine, 2009):

Tests used:
CD4+/CD8+ thymocytes = test: Flow cytometry of thymocytes from dex-treated mice; format: in vivo, BALB/c mice; conditions: measured by a drop in this cell population over time; dex 50 mg/kg IP
thymocytes = conditions: after dex treatment; cited from earlier work
[1] = exposed during late stages of apoptosis; cited from earlier work
[2] = leading to high background signals; cited from earlier work
caspase-3/7 = test: Caspase labeling in COLO205 tumors of Apomab-treated mice, SDS-PAGE; format: in vivo, human colorectal cancer COLO205 xenograft in nude mice; conditions: Apomab 10 mg/kg IV; AB50-Cy5 50 nmol IV 1 h; COLO205 xenograft
legumain [3] = test: Legumain labeling in COLO205 tumors of Apomab-treated mice, SDS-PAGE; format: in vivo, human colorectal cancer COLO205 xenograft in nude mice; conditions: Apomab 10 mg/kg IV; AB50-Cy5
caspases-3/7 = conditions: cited from earlier work
cathepsins = conditions: cited from earlier work
legumain [4] = conditions: cited from earlier work

C[C@@H]1C[C@H]2[C@@H]3CCC4=CC(=O)C=C[C@]4(C)[C@@]3(F)[C@@H](O)C[C@]2(C)[C@@]1(O)C(=O)CO [dexamethasone]
induction of apoptosis in CD4+/CD8+ cells (CD4+/CD8+ thymocytes): specifically induced apoptosis in CD4+/CD8+ cells
TUNEL+ staining at 18 and 24 hours (thymocytes): sharp decrease

Annexin V: protein with high affinity for phosphatidylserines exposed during the late stages of apoptosis
affinity for phosphatidylserines [1]: high affinity
clearance in vivo [2]: slow clearance in vivo

Apomab: monoclonal antibody that induces the extrinsic apoptosis pathway by binding to death receptor 5
time of optimal (peak) caspase activity after Apomab (caspase-3/7): 12 h
legumain labeling over time course after Apomab (legumain [3]): constant throughout the time course

Asp-Glu-Val-Asp [DEVD]
recognition by caspases-3/7 (caspases-3/7): optimal
recognition by cathepsins (cathepsins): efficiently recognized
recognition by legumain (legumain [4]): efficiently recognized
